Data on three compounds can be found in patent US4284553A, “Reversible method for covalent immobilization of biochemicals” (North Carolina State University at Raleigh, priority 1980, dated 1981).

In data set [1] the target is T1, α-Chymotrypsin (EC 3.4.21.1) from bovine pancreas, immobilized on thioester-derivatized glass beads (20.2 mg/g) (Bos taurus, UniProt P00766).
T1 construct: purchased Miles Laboratories or Sigma Chemical Co; host or cells: bovine pancreas
Description: Hydrolysis of BzTyrOEt by α-chymotrypsin immobilized on thioester-glass beads (20.2 mg/g). The data set is classed as biochemical. Also noted: unit not given here. The settings on record: substrate BzTyrOEt; immobilized (20.2 mg/g). As to the method: (§1) α-Chymotrypsin (EC 3.4.21.1) from bovine pancreas was obtained as a lyophilized powder from Miles Laboratories or Sigma Chemical Co. and used without further purification. All chemicals used were reagent grade or better.
(§2) Succinamidopropyl-derivatized glass was converted to the acyl chloride derivative by treatment with anhydrous thionyl chloride. Care was taken to prevent the introduction of water in each of these reaction steps. The reacion mixture was held at 70° C. for 1 hour. The solution was then cooled to 25° C., and excess thionyl chloride was drained from the beads, which were then rinsed thoroughly with dry dichloromethane. The beads were next covered with anhydrous 3-mercaptopropionic acid and again held at 70° C. for 1 hour. Following reaction, the excess acid was drained, and the derivatized beads were again washed with dichloromethane. […]
(§3) Hydrolysis of benzoly-L-tyrosine ethyl ester (BzTyrOEt) by α-chymotrypsin was assayed according to the method of Hummel, B. C. […] Reaction was initiated by addition of soluble enzyme to the reaction mixture, and reaction progress was monitored spectrophotometrically at 256 nm. […] Initial slopes were read directly from the recorder chart and kinetic constants were evaluated using a computer program to fit data directly to velocity versus substrate concentration curves.

The target in data set [2] is T2, α-Chymotrypsin (EC 3.4.21.1) from bovine pancreas, immobilized on thioester-derivatized glass beads (9.5 mg/g) (Bos taurus, UniProt P00766).
T2 construct: purchased Miles Laboratories or Sigma Chemical Co; host or cells: bovine pancreas
Description: Hydrolysis of BzTyrOEt by α-chymotrypsin immobilized on thioester-glass beads (9.5 mg/g, after brief hydroxylamine treatment). The settings on record: substrate BzTyrOEt; immobilized (9.5 mg/g). Further details: unit not given here. It counts as biochemical. Here is the method:
as §1, §2, §3

In data set [3] the test system is CCOC(=O)[C@H](Cc1ccc(O)cc1)NC(=O)c1ccccc1. Description: purified protein, by the assay type. The settings on record: other: substrate BzTyrOEt.

In the case of `CCOC(=O)[C@H](Cc1ccc(O)cc1)NC(=O)c1ccccc1` [BzTyrOEt, benzoly-L-tyrosine ethyl ester], the “kcat /Km (app)” value in data set [1] amounted to 0.9; in data set [2] it was 1.0. As to “α-Chymotrypsin (EC 3.4.21.1) from bovine pancreas, native soluble enzyme before immobilization (Bos taurus)”, the Km in data set [3] (soluble enzyme before immobilization) is 2.74 mM.

As for “α-Chymotrypsin (EC 3.4.21.1) from bovine pancreas, soluble enzyme released by hydroxylamine (thioacylated, about three chains per molecule) (Bos taurus)”, the Km in data set [3] (soluble enzyme released by hydroxylamine, pH 7.0) turned out to be 3.35 mM.

A word on the Km: it is the substrate concentration at which the rate is half of its maximum.
